Data reported in ChEMBL document CHEMBL5104126, “Discovery of 2,3-dihydro-1H-pyrrolo[3,4-b]quinolin-1-one derivatives as possible antileishmanial agents” (RSC Med Chem, 2022).
Converted amounts (≈) assume the structure as drawn. The source made the active and inactive calls. The rule behind the calls is not given here.

Key:
J774 [1] = test: Cytotoxicity against mouse macrophage J774 cells assessed as reduction in cell viability at 50 to 100 uM incubated for 72 hrs by MTT assay; type: toxicity, cell-based; conditions: j774, 72 h, dose 50-100 µM
J774 [2] = test: Cytotoxicity against mouse macrophage J774 cells assessed as reduction in cell viability at 6.25 to 25 uM incubated for 72 hrs by MTT assay; type: toxicity, cell-based; conditions: j774, 72 h, dose 6.25-25 µM
Leishmania donovani [3] = test: Antileishmanial activity against Leishmania donovani MHOM/IN/80/Dd8 promastigotes harboring luciferase gene infected in mouse J774 cells assessed as inhibition of parasite viability at 25 uM incubated for 72 hrs by Steady-Glo reagent based luciferase assay relative to control; type: functional; conditions: MHOM/IN/80/Dd8, J774
Leishmania donovani [4] = test: Antileishmanial activity against Leishmania donovani MHOM/IN/80/Dd8 amastigotes harboring luciferase gene infected in mouse J774 cells assessed as inhibition of parasite viability at 25 uM incubated for 72 hrs by Steady-Glo reagent based luciferase assay relative to control; type: functional; conditions: MHOM/IN/80/Dd8, J774
Leishmania donovani [5] = test: Antileishmanial activity against Leishmania donovani MHOM/IN/80/Dd8 amastigotes harboring luciferase gene infected in mouse J774 cells assessed as inhibition of parasite viability incubated for 72 hrs by Steady-Glo reagent based luciferase assay relative to control; type: functional, organism-based; conditions: MHOM/IN/80/Dd8, J774, 72 h
Leishmania donovani [6] = test: Antileishmanial activity against Leishmania donovani MHOM/IN/80/Dd8 promastigotes harboring luciferase gene infected in mouse J774 cells assessed as inhibition of parasite viability at 50 uM incubated for 72 hrs by Steady-Glo reagent based luciferase assay relative to control; type: functional; conditions: MHOM/IN/80/Dd8, J774
Leishmania donovani [7] = test: Antileishmanial activity against Leishmania donovani MHOM/IN/80/Dd8 promastigotes harboring luciferase gene infected in mouse J774 cells assessed as inhibition of parasite viability incubated for 72 hrs by Steady-Glo reagent based luciferase assay relative to control; type: functional, organism-based; conditions: MHOM/IN/80/Dd8, J774, 72 h
[8] = Cytotoxicity against mouse macrophage J774 cells assessed as inhibition of cell viability incubated for 72 hrs by MTT assay; type: toxicity, cell-based
[9] = Cytotoxicity against human HepG2 cells assessed as inhibition of cell viability incubated for 72 hrs by MTT assay; type: toxicity, cell-based
[10] = Selectivity index, ratio of CC50 for cytotoxicity against mouse macrophage J774 cells to IC50 for antileishmanial activity against Leishmania donovani MHOM/IN/80/Dd8 amastigotes harboring luciferase gene infected in mouse J774 cells; type: toxicity, cell-based; conditions: read-out: Ratio CC50/IC50
[11] = Selectivity index, ratio of CC50 for cytotoxicity against human HepG2 cells to IC50 for antileishmanial activity against Leishmania donovani MHOM/IN/80/Dd8 amastigotes harboring luciferase gene infected in mouse J774 cells; type: toxicity, cell-based; conditions: read-out: Ratio CC50/IC50
[12] = Stability of compound in SGF assessed as parent compound remaining at 10 ug/ml incubated for 2 hrs by UPLC analysis; type: ADME; conditions: at 10 µg/mL, read-out: Stability
[13] = Stability of compound in SIF assessed as parent compound remaining at 10 ug/ml incubated for 2 hrs by UPLC analysis; type: ADME; conditions: at 10 µg/mL, read-out: Stability
[14] = Stability of compound in mouse plasma assessed as parent compound remaining at 10 ug/ml incubated for 2 hrs by UPLC analysis; type: ADME, cell-free; conditions: at 10 µg/mL, read-out: Stability
[15] = Metabolic stability in mouse liver microsomes assessed as parent compound remaining at 10 ug/ml incubated for 1 hrs in presence of NADPH by UPLC analysis; type: ADME, Microsome; conditions: at 10 µg/mL, read-out: Stability
[16] = Metabolic stability in mouse liver microsomes assessed as elimination rate constant at 10 ug/ml incubated for 1 hrs in presence of NADPH by UPLC analysis; type: ADME, Microsome; conditions: dose 10 µg/ml
[17] = Metabolic stability in mouse liver microsomes assessed as half life at 10 ug/ml incubated for 1 hrs in presence of NADPH by UPLC analysis; type: ADME, Microsome; conditions: dose 10 µg/ml
[18] = Metabolic stability in mouse liver microsomes assessed as intrinsic clearance at 10 ug/ml measured per mg protein incubated for 1 hrs in presence of NADPH by UPLC analysis; type: ADME, Microsome; conditions: dose 10 µg/ml, read-out: CLH
[19] = Aqueous solubility of the compound incubated for 24 hrs by shake flask method; type: physicochemical; conditions: water
[20] = Octanol/water partition coefficient, logP of the compound incubated for 24 hrs by shake flask method; type: physicochemical
Leishmania donovani [21] = test: Antileishmanial activity against Leishmania donovani MHOM/IN/80/Dd8 promastigotes infected in Balb/c mouse assessed as inhibition organ parasite burden in liver at 6.25 mg/kg, ip for 7 days by Giemsa staining based microscopy; type: functional; conditions: MHOM/IN/80/Dd8, 168 h, time 7 day
Leishmania donovani [22] = test: Antileishmanial activity against Leishmania donovani MHOM/IN/80/Dd8 promastigotes infected in Balb/c mouse assessed as inhibition organ parasite burden in spleen at 6.25 mg/kg, ip for 7 days by Giemsa staining based microscopy; type: functional; conditions: MHOM/IN/80/Dd8, 168 h, time 7 day
Leishmania donovani [23] = test: Antileishmanial activity against Leishmania donovani MHOM/IN/80/Dd8 promastigotes infected in Balb/c mouse assessed as inhibition organ parasite burden in liver at 12.5 mg/kg, ip for 7 days by Giemsa staining based microscopy; type: functional; conditions: MHOM/IN/80/Dd8, 168 h, time 7 day
Leishmania donovani [24] = test: Antileishmanial activity against Leishmania donovani MHOM/IN/80/Dd8 promastigotes infected in Balb/c mouse assessed as inhibition organ parasite burden in spleen at 12.5 mg/kg, ip for 7 days by Giemsa staining based microscopy; type: functional; conditions: MHOM/IN/80/Dd8, 168 h, time 7 day
Leishmania donovani [25] = test: Antileishmanial activity against Leishmania donovani MHOM/IN/80/Dd8 promastigotes infected in Balb/c mouse assessed as inhibition organ parasite burden in liver at 50 mg/kg, ip for 7 days by Giemsa staining based microscopy; type: functional; conditions: MHOM/IN/80/Dd8, 168 h, time 7 day
Leishmania donovani [26] = test: Antileishmanial activity against Leishmania donovani MHOM/IN/80/Dd8 promastigotes infected in Balb/c mouse assessed as inhibition organ parasite burden in spleen at 50 mg/kg, ip for 7 days by Giemsa staining based microscopy; type: functional; conditions: MHOM/IN/80/Dd8, 168 h, time 7 day
Leishmania donovani [27] = test: Induction of mitochondrial membrane potential loss in Leishmania donovani MHOM/IN/80/Dd8 promastigotes assessed as apoptotic cells at 50 uM incubated for 24 hrs by JC-1 dye staining based flow cytometry; type: functional
Leishmania donovani [28] = test: Induction of mitochondrial membrane potential loss in Leishmania donovani MHOM/IN/80/Dd8 promastigotes assessed as apoptotic cells at 50 uM incubated for 48 hrs by JC-1 dye staining based flow cytometry; type: functional
Leishmania donovani [29] = test: Induction of apoptosis in Leishmania donovani MHOM/IN/80/Dd8 promastigotes assessed as increase in cytochrome c level in cytosol at 50 uM incubated upto 48 hrs by immunoblot analysis; type: functional, organism-based; conditions: TDE = time-dependent effect
Leishmania donovani [30] = test: Induction of apoptosis in Leishmania donovani MHOM/IN/80/Dd8 promastigotes assessed as decrease in cytochrome c level in mitochondria at 50 uM incubated upto 48 hrs by immunoblot analysis; type: functional, organism-based; conditions: TDE = time-dependent effect
Leishmania donovani [31] = test: Induction of apoptosis in Leishmania donovani MHOM/IN/80/Dd8 promastigotes assessed as ladder like DNA at 50 uM incubated for 72 hrs by agarose gel electrophoresis; type: functional, organism-based
Leishmania donovani [32] = test: Induction of apoptosis in Leishmania donovani MHOM/IN/80/Dd8 promastigotes assessed as breakdown of nuclear DNA at 50 uM incubated for 72 hrs by agarose gel electrophoresis; type: functional, organism-based
Leishmania donovani [33] = test: Induction of cell cycle arrest in Leishmania donovani MHOM/IN/80/Dd8 promastigotes assessed as increase in subG0/G1 phase at 50 uM incubated for 72 hrs by PI staining based flow cytometry; type: functional

With `COc1ccc(-c2c3c(nc4ccc(OC)cc24)CN(C(C)(C)C(=O)NC(C)(C)C)C3=O)cc1` the Activity (J774 [1]) was “>= 30%”, the Activity (J774 [2]) was “Non-Toxic” and the inhibition at 25 µM (Leishmania donovani [3]) was 85.4%. For the same compound, the inhibition at 25 µM (Leishmania donovani [4]) was 85.5%, the IC50 (Leishmania donovani [5]) was 7.36 µM and the inhibition at 50 µM (Leishmania donovani [6]) was 86.5%. It also gave an IC50 (Leishmania donovani [7]) of 8.36 µM, a CC50 at 72 h [8] of 65.1 µM and a CC50 at 72 h [9] of 63.7 µM. For the same compound, the selectivity ratio [10] was 7.79, the selectivity ratio [11] was 7.62 and the remaining at 2 h, 10 ug/ml [12] was 87.5%. For the same compound, the remaining at 2 h, 10 ug/ml [13] was 85.5%, the remaining at 2 h, 10 ug/ml [14] was 88.7% and the remaining at 1 h, 10 ug/ml [15] was 86.8%. The k el at 1 h, 10 ug/ml [16] was 3.89e-05 s⁻¹, the half-life at 10 ug/ml [17] was 5.07 h and the microsomal CLint at 10 ug/ml [18] was 4.61 µL/min/mg. It also gave a solubility thermodynamic at 24 h [19] of 157 µg/mL (≈ 340 µM), a logP at 24 h [20] of 2.7 and an inhibition in vivo at 6.25 mg/kg (Leishmania donovani [21]) of 45.1%. It also gave an inhibition in vivo at 6.25 mg/kg (Leishmania donovani [22]) of 42.4%, an inhibition in vivo at 12.5 mg/kg (Leishmania donovani [23]) of 56.2% and an inhibition in vivo at 12.5 mg/kg (Leishmania donovani [24]) of 61.1%. The inhibition in vivo at 50 mg/kg (Leishmania donovani [25]) was 57.8%, the inhibition in vivo at 50 mg/kg (Leishmania donovani [26]) was 63.4% and the Activity (Leishmania donovani [27]) was 36%. For the same compound, the Activity (Leishmania donovani [28]) was 69.1%, the Activity (Leishmania donovani [29]) was “Tde” and the Activity (Leishmania donovani [30]) was “Tde”. For the same compound, the Activity (Leishmania donovani [31]) was “Active”, the Activity (Leishmania donovani [32]) was “Active” and the Activity (Leishmania donovani [33]) was 58.4%.
